Results from patent publication US20190185479A1, “BICYCLIC NITROGENATED HETEROCYCLIC COMPOUND” (MITSUBISHI TANABE PHARMA CORPORATION, priority 2016, published 2019).

Experiments:
hPDE2A = target: T1, hPDE2A (Homo sapiens, UniProt O00408); test: PDE7 selectivity test (Ki value), Experimental Example 2: hPDE2A; format: biochemical; conditions: Ki from IC50 by Cheng-Prusoff, read-out: PDE inhibition constant Ki, PDE2
T1 construct: purchased SB Drug Discovery
Protocol: (§1) hPDE1A, hPDE2A, hPDE3A, hPDE4D, hPDE5A, and hPDE8B were purchased from SB Drug Discovery. hPDE7B was isolated by the same method as [Method for preparing samples 1], and hPDE9A, hPDE10A, and hPDE11A were isolated by the same method as hPDE7B, i.e., isolated from COS-7 cells transfected with plasmids encoding each PDE. PDE6 was purified and isolated from bovine retina (bovine PDE6).
(§2) Prior to the calculation of Ki value, Km value of each PDE against cAMP or cGMP was calculated. Each PDE diluted with an assay buffer so that it would have an appropriate enzyme activity, and six or more concentrations of cAMP or cGMP were reacted at room temperature for 60 minutes. Regarding PDE using cAMP as a substrate, PDELight (trademark) HTS cAMP phosphodiesterase Kit (Lonza) was used to measure a degradation product, 5′-AMP. Also, regarding PDE using cGMP as a substrate, […] of perchloric acid was added to the mixture to stop the reaction, and the resulting mixture was subjected to LC-MS/MS to measure the residual cGMP concentration. The amount of degraded substrate in each substrate concentration was calculated, the concentration of the added substrate was plotted on the horizontal axis, the amount of degraded substrate was plotted on the vertical axis, and Km value was calculated by non-linear regression on the basis of Michaelis-Menten equation. Km value (substrate) of each PDE was hPDE1A: 4.3 (cGMP), hPDE2A: 36 (cAMP), hPDE3A: 0.11 (cAMP), hPDE4D: 0.90 (cAMP), hPDE5A: 3.9 (cGMP), bovine PDE6:9.8 (cGMP), hPDE7B: 0.015 (cAMP), hPDE8B: 0.63 (cAMP), hPDE9A: 0.0037 (cGMP), hPDE10A: 0.051 (cAMP), and hPDE11A: 1.4 (cAMP) μmol/L, respectively.
(§3) Next, PDE inhibition assay of a compound was carried out using each PDE. The PDE inhibition assay was basically carried out by the same enzyme reaction method as [Assay procedure 1], and the degraded amount of cAMP or cGMP was measured by the same method as [Assay procedure 2]. In the assay, a concentration approximated to Km value of each PDE against cAMP or cGMP was used as a substrate concentration. Meanwhile, regarding hPDE5A, hPDE8B, and hPDE9A, IMAP (trademark) FP Phosphodiesterase Evaluation Assay Kit (Molecular Devices) was used to measure the degradation of FAM-cAMP or FAM-cGMP by fluorescence depolarization technique.
(§4) Each compound was evaluated at six or more concentrations with common ratio 10. Each inhibition rate was calculated according to <Method for data calculation 1>, and then each IC50 value was calculated by sigmoid regression. The resulting IC50 value was used in the following Cheng-Prusoff equation to calculate each Ki value. Ki=IC50/(1+[S]/Km), wherein [S] represents a substrate concentration used

hPDE10A = hPDE10A (Homo sapiens, UniProt Q9Y233); test: PDE7 selectivity test (Ki value), Experimental Example 2: hPDE10A; format: biochemical; conditions: Ki from IC50 by Cheng-Prusoff, read-out: PDE inhibition constant Ki, PDE10
Protocol: as §1, §2, §3, §4

T1 sequence (O00408 whole entry): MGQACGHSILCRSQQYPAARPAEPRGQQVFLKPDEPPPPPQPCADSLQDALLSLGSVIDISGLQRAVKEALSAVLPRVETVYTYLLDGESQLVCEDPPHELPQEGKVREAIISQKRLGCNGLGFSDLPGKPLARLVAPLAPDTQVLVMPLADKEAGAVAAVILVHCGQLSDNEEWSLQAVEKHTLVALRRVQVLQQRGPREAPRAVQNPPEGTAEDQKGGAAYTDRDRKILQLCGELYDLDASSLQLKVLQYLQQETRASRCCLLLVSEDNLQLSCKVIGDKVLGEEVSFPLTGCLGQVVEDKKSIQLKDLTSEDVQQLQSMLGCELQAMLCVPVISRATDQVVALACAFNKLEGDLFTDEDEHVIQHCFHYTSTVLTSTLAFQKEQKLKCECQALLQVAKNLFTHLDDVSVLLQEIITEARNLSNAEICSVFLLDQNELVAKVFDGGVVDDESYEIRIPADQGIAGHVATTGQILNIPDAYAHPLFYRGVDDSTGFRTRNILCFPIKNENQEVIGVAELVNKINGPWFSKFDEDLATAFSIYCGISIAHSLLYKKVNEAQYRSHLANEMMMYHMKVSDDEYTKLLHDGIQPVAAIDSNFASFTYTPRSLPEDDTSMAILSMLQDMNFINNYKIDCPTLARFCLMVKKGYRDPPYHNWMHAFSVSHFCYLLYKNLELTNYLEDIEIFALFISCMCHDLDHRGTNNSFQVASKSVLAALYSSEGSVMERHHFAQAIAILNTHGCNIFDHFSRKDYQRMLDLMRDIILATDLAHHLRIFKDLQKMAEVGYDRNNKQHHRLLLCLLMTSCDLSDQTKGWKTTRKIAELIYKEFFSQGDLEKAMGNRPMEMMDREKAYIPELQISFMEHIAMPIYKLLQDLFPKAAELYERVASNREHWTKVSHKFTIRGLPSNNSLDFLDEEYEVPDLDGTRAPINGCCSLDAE
Sequence of hPDE10A (Q9Y233 290-1055 limits assumed): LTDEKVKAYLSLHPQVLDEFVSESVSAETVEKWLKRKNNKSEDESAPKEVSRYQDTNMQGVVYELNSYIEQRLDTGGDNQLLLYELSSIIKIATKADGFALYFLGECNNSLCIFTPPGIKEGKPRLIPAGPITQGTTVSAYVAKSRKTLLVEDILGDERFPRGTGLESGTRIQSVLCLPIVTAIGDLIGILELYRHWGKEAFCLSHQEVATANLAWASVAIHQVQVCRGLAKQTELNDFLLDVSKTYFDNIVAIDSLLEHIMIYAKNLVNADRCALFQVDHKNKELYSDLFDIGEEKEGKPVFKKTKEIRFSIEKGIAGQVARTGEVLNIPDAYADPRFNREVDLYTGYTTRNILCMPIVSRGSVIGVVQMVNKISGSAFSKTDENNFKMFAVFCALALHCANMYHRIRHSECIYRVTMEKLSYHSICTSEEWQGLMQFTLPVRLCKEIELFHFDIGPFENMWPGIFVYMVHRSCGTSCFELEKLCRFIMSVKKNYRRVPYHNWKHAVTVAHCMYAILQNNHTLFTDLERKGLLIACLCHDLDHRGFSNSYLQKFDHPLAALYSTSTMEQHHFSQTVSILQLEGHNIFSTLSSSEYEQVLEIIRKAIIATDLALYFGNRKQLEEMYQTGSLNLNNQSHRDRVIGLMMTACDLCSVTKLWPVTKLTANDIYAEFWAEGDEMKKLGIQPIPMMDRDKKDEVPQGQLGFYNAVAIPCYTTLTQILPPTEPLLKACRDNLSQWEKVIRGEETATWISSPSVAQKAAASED

Structure (SMILES) | Ki (hPDE2A) | Ki (hPDE10A)
Nc1ncnc2c1nnn2C1CCCCC1 [Example 3, 3-cyclohexyl-3H-[1,2,3]triazolo[4,5-d]pyrimidin-7-amine] | 27 µM | 12 µM
Nc1nccn2c(C3CCCCC3)nnc12 [Example 141, 3-cyclohexyl[1,2,4]triazolo[4,3-a]pyrazin-8-amine] | > 5.1 µM | > 5.1 µM
C[C@@H]1CCC[C@H](c2nnc3c(N)nccn23)C1 [Example 204, 3-[(1S,3R)-3-methylcyclohexyl][1,2,4]triazolo[4,3-a]pyrazin-8-amine] | 14 µM | 2.6 µM

Continued by falling Ki (hPDE2A), values first:

Ki (hPDE2A) | Ki (hPDE10A) | Structure (SMILES)
10 µM | 2.4 µM | CC1CCCCC1n1nnc2c(N)ncnc21 (single isomer, unassigned) [Example 191, 3-(cis-2-methylcyclohexyl)-3H-[1,2,3]triazolo[4,5-d]pyrimidin-7-amine]
6.6 µM | 1.1 µM | Cc1nc(N)c2nnn(C3CCCCC3)c2n1 [Example 4]
